In US6537803B1, “Amino acid transporters and uses” (Oregon Health Sciences University, priority 1993, dated 2003):
Like-named read-outs stand apart in the source and are kept apart here. Values belong to the compound of their own block, whether it stands above or below them.

What was measured:
Assay type in all cases: cell-based
human EAAT1 = molecular target: T1, human EAAT1 (Homo sapiens, UniProt P43003); test: inhibition of [3H]-L-glutamate uptake in COS-7 cells expressing EAAT1; conditions: for inhibition of glutamate uptake (in words), EAAT1: COS cell culture
T1 construct: expressed in transfected cells; host or cells: COS-7 cells, pCMV5 construct, DEAE-dextran transient transfection
From the text: (§1) DNA fragments comprising the coding sequences of the novel glutamate transporter genes of the invention were excised from the POTV constructs described in Example 3 and subcloned into the mammalian expression plasmid pCMV5 (Anderson et al., 1989, J. Biol. Chem. 264: 8222-8229). These mammalian expression constructs were used for transient expression assays of glutamate transporter protein function after transfection of each of these constructs into COS-7 cells (Gluzman, 1981, Cell 23: 175-182).
(§2) Each of the pCMV5 constructs corresponding to EAAT1, EAAT2 and EAAT3 were introduced into COS-7 cells by DEAE-dextran facilitated transfection (see Sambrook et al., ibid.). Two day following transfection, the transfected cells were washed three times in phosphate-buffered saline (PBS) and then incubated with a mixture of radiolabeled amino acid ([^3H]-L-glutamate or [^3H]-D-aspartate; Dupont-NEN) and non-radiolabeled amino acid for 10 min. After incubation, the cells were washed three times with ice-cold PBS, solubilized with a solution of 0.1% sodium dodecyl sulfate (SDS) and the amount of radioactivity associated with the cells determined using standard liquid scintillation counting methods.
(§3) COS-7 cell cultures transformed with pCMVS-human glutamate transporter constructs as described in Example 4 were used to characterize the pharmacological properties of each of these transporter proteins relative to a variety of known glutamate transporter inhibitors. These assays were performed essentially as described in Example 4, with the exception that varying amounts of each of a number of known inhibitor compounds were included in the incubations.
(§4) In these experiments, uptake of 1 μM of […] was determined in the presence of the indicated amounts of each of the inhibitors.

human EAAT3 = molecular target: T2, human EAAT3 (Homo sapiens, UniProt P43005); test: inhibition of [3H]-L-glutamate uptake in COS-7 cells expressing EAAT3; conditions: for inhibition of glutamate uptake (in words), EAAT3: COS cell culture
T2 construct: isolation of Clone GT11B containing a full-length open reading frame encoding EAAT3; expressed in transfected cells; host or cells: COS-7 cells, pCMV5 construct, DEAE-dextran transient transfection
T2 sequence (P43005 1-524): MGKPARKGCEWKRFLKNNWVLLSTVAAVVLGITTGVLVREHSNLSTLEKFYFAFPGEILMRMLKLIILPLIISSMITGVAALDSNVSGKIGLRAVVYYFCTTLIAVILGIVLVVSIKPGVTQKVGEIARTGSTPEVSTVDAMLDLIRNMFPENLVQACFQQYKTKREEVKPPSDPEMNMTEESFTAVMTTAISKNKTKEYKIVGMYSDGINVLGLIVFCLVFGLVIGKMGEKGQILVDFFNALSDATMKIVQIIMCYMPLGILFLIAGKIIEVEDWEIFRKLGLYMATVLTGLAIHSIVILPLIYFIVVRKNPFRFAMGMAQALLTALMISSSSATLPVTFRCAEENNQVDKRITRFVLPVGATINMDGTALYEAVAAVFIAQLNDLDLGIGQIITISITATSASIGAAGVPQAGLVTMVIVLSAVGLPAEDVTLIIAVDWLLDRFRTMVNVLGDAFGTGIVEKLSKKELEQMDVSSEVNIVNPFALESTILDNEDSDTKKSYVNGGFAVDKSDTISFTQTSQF
From the text: as §1, §2, §3, §4

human EAAT2 = molecular target: T3, human EAAT2 (Homo sapiens, UniProt P43004); test: inhibition of [3H]-L-glutamate uptake in COS-7 cells expressing EAAT2; conditions: for inhibition of glutamate uptake (in words), EAAT2: COS cell culture
T3 construct: expressed in transfected cells; host or cells: COS-7 cells, pCMV5 construct, DEAE-dextran transient transfection
From the text: as §1, §2, §3, §4

[1] = molecular target: T4, human ASCT1 neutral amino acid transporter (Homo sapiens, UniProt P43007); test: amino acid-induced inward current in voltage-clamped ASCT1-injected Xenopus oocytes; conditions: for effect on membrane current of ASCT1-injected oocytes: much higher concentrations (about 1 mM)
T4 construct: expressed in transfected cells; host or cells: Xenopus laevis oocytes injected with in vitro transcribed RNA (pOTV vector)
T4 sequence (P43007 1-532): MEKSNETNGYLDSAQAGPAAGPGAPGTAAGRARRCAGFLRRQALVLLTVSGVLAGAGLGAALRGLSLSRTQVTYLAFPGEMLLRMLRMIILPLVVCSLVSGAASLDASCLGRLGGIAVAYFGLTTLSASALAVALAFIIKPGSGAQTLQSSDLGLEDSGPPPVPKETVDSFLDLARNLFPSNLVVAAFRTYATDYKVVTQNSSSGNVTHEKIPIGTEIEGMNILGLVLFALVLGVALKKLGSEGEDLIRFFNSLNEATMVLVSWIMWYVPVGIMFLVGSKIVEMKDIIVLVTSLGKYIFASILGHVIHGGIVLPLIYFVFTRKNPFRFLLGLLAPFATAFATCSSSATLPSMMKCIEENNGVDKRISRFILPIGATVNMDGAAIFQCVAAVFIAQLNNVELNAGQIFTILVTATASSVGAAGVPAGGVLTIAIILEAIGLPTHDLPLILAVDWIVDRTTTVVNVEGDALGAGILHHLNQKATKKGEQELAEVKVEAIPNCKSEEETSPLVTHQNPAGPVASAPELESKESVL
From the text: Following the PCR, the product of the amplification reaction was purified using standard techniques (Saiki et al., 1988, Science 239: 487-491). The DNA then digested with the restriction enzymes KpnI and XbaI and then cloned into the polylinker of an oocyte transcription vector (POTV; see Wang el al., 1991, Nature 352: 729-731) that had been digested with KpnI and XbaI. Synthetic RNA was then transcribed in vitro from this clone using the method of Kavanaugh et al. (1992, J. Biol. Chem. 267: 22007-22009) employing bacteriophage T7 RNA polymerase (New England Biolabs, Beverly, Mass.). 20-50 nL of ASCT1 RNA (at a concentration of about 400 μg/mL) was injected into defolliculated stage V-VI Xenopus oocytes excised from female Xenopus laevis anesthetized by immersion in 3-aminobenzoic acid for 60 min. Excised oocytes were treated with collagenase II (Sigma Chemical Co., St. Louis, Mo.) in calcium-free Barth's saline solution [comprising 88 mM NaCl, 1 mM KCl, 2.4 mM NaHCO3, 0.82 mM MgSO4, 7.5 mM Tris-HCl (pH 7.6), 50 U/mL Nystatin (Sigma) and 0.1 mg/mL gentamycin (Sigma)] for 60 min., and then incubated overnight at 15° C. in 50% Leibowitz's L-15 media (Grand Island Biological Co. (GIBCO), Long Island, N.Y.). After overnight incubation the oocytes were mechanically defolliculated and then were injected with ASCT-1 RNA and incubated at 19° C. for 48 h (see Kim el al., 1991, Nature 352: 725-728 for further details of Xenopus oocyte preparation and microinjection).
Amino acid transport in such oocytes was assayed using [^3H] alanine, [^3H] serine or [^35S] cysteine (obtained from New England Nuclear, Boston, Mass.). Briefly, microinjected oocytes were […] at −60 mV using a Dagan TEV-200 clamp amplifier with an Axon Instruments (Foster City, Calif.) TL-1 A/D interface controlled by pCLAMP software (Axon Instruments) (see Kavanaugh et al., 1992, J. Biol. Chem. 267: 22007-22009 for a detailed review of this methodology) and continuously superfused with ND-96 buffer (consisting of 96 mM NaCl/2 mM KCl/1.8 mM CaCl2/1 mM MgCl2/5 mM HEPES, pH 7.5). For transport measurements, this solution was changed to a solution containing varying concentrations of the radiolabeled amino acids in ND-96 buffer.
More detailed analyses of ithe kinetics of amino acid influx were performed by least squares linear regression analysis of induced inward current ([I]) plotted as a function of substrate amino acid concentration ([S]), using the equation shown in the legend of Table II.

[2] = uptake of 1 μM [3H]-L-glutamate, [S] << Km, Ki does not differ significantly from measured IC50, read-out: Ki, glutamate uptake inhibition constant, EAAT1
[3] = uptake of 1 μM [3H]-L-glutamate, [S] << Km, Ki does not differ significantly from measured IC50, read-out: Ki, glutamate uptake inhibition constant, EAAT3
[4] = uptake of 1 μM [3H]-L-glutamate, [S] << Km, Ki does not differ significantly from measured IC50, read-out: Ki, glutamate uptake inhibition constant, EAAT2

T3 sequence (P43004 whole entry): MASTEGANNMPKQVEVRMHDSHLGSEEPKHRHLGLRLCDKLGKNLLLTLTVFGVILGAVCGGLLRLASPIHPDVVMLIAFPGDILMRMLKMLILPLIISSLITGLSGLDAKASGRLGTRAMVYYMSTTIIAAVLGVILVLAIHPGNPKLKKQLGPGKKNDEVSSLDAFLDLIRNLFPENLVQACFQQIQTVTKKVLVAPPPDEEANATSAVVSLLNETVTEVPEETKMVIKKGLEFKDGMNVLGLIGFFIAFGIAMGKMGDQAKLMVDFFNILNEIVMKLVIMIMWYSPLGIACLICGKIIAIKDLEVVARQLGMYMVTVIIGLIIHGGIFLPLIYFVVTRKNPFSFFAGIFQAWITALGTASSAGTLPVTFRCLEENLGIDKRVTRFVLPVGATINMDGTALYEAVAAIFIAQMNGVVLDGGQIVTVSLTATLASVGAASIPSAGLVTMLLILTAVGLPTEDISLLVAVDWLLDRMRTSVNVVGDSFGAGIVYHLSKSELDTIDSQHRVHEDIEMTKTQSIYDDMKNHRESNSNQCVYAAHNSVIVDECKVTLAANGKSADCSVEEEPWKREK
T1 sequence (P43003 whole entry): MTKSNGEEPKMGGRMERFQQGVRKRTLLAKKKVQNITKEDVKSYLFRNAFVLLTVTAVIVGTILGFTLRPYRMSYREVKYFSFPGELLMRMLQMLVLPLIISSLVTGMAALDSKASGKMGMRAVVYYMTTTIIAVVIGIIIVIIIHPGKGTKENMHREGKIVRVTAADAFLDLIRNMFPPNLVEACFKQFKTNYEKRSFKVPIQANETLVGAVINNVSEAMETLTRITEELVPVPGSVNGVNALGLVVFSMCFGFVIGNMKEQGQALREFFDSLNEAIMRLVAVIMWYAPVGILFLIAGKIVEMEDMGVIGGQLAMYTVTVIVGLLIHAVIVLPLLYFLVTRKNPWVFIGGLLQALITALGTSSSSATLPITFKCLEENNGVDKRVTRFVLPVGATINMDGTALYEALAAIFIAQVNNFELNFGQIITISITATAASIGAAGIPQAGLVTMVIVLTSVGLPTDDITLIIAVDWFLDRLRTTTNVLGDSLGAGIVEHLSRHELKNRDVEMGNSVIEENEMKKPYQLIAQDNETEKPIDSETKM

SMILES: CC(C)[C@H]1CN[C@H](C(=O)O)[C@H]1CC(=O)O [DHK, dihydrokainate]
- Ki (human EAAT1): > 1000 µM
- Ki (human EAAT3): > 1000 µM
- Ki (human EAAT2): 23 ± 6 µM

SMILES: O=C1CC[C@@H](C(=O)O)N1 [L-pyroglutamicacid]
- inhibition of glutamate uptake (in words), EAAT1 (human EAAT1): ineffective
- inhibition of glutamate uptake (in words), EAAT3 (human EAAT3): ineffective
- inhibition of glutamate uptake (in words), EAAT2 (human EAAT2): ineffective

SMILES: N[C@@H](CS(=O)(=O)O)C(=O)O [L-cysteate]
- Ki (human EAAT1; [2]): 10 ± 3 µM
- Ki (human EAAT3; [3]): 19 ± 9 µM
- Ki (human EAAT2; [4]): 10 ± 2 µM

SMILES: N[C@@H](Cn1oc(=O)[nH]c1=O)C(=O)O [quisqualate]
- inhibition of glutamate uptake (in words), EAAT1 (human EAAT1): ineffective
- inhibition of glutamate uptake (in words), EAAT3 (human EAAT3): ineffective
- inhibition of glutamate uptake (in words), EAAT2 (human EAAT2): ineffective

SMILES: O=C(O)[C@H]1CN[C@H](C(=O)O)C1 [PDC, L-trans-pyrrolidine-2,4-dicarboxylate]
- Ki (human EAAT1; read-out: Ki, glutamate uptake inhibition constant, EAAT1): 79 ± 7 µM
- Ki (human EAAT3; read-out: Ki, glutamate uptake inhibition constant, EAAT3): 61 ± 14 µM
- Ki (human EAAT2; read-out: Ki, glutamate uptake inhibition constant, EAAT2): 8 ± 2 µM

SMILES: NC(=O)CC[C@H](N)C(=O)O [L-glutamine]
- effect on membrane current of ASCT1-injected oocytes [1]: had no effect

SMILES: C[C@@H](N)C(=O)O [D-alanine]
- response relative to the response produced by L-alanine ([1]; stereospecificity): 12±3%

SMILES: CN[C@@H](C)C(=O)O [N-methylalanine]
- effect on membrane current of ASCT1-injected oocytes [1]: had no effect

The next lines start with the values.

- inhibition of glutamate uptake (in words), EAAT1 (human EAAT1): ineffective
- inhibition of glutamate uptake (in words), EAAT3 (human EAAT3): ineffective
- inhibition of glutamate uptake (in words), EAAT2 (human EAAT2): ineffective
SMILES: NC1(C(=O)O)CC(C(=O)O)C1 (stereo not drawn) [cis-1-aminocyclobutane-1,3-dicarboxylate]

- Ki (human EAAT1; [2]): 297 ± 118 µM
- Ki (human EAAT3; [3]): 307 ± 48 µM
- Ki (human EAAT2; [4]): 156 ± 37 µM
SMILES: NC(CC(=O)O)CC(=O)O [β-glutamate]

- effect on membrane current of ASCT1-injected oocytes [1]: had no effect
SMILES: CSCC[C@H](N)C(=O)O [methionine]

- inhibition of glutamate uptake (in words), EAAT1 (human EAAT1): ineffective
- inhibition of glutamate uptake (in words), EAAT3 (human EAAT3): ineffective
- inhibition of glutamate uptake (in words), EAAT2 (human EAAT2): ineffective
SMILES: N[C@@H](CSS(=O)(=O)O)C(=O)O [S-sulfo-L-cysteine]

- effect on membrane current of ASCT1-injected oocytes [1]: had no effect
SMILES: NC(=O)C[C@H](N)C(=O)O [asparagine]

- effect on membrane current of ASCT1-injected oocytes [1]: had no effect
SMILES: CC(C)C[C@H](N)C(=O)O [leucine]
